Test system: HMLER breast cancer populations
Assay: Microarray gene expression / Gene Set Enrichment Analysis of HMLER cells after drug treatment versus DMSO control
Type: cell-based
Details: relative to DMSO control, GSEA; for collective expression level of the genes in Table 1 (EMT-associated genes) and subsets thereof upon treatment: FIGS. 2 and 5; for collective expression level of the genes in Table 2 (non-EMT-associated genes) and subsets thereof upon treatment: FIGS. 3 and 4
Procedure: The collective expression levels of the genes in Tables 1 and 2 after paclitaxel treatment were then determined. For these analyses, which are shown in FIGS. 2 and 3, collections of gene subsets of various sizes were chosen.
Next, identical analyses as those described above were performed in the context of treatment with a different anti-cancer agent—salinomycin—that was previously identified as specifically killing invasive cancer stem cells. The opposite expression change (relative to paclitaxel) was observed upon treatment with salinomycin. […] As a consequence, measurement of the expression of the genes in Table 1 (or any appropriate subsets thereof identified according to the methods disclosed herein) would serve to identify tumors that would be responsive to a CSS agent (e.g., salinomycin treatment) when applied as a single agent.

Row | Structure (SMILES) | collective expression level of the genes in Table 1 (EMT-associated genes) and subsets thereof upon treatment | collective expression level of the genes in Table 2 (non-EMT-associated genes) and subsets thereof upon treatment
1 | CC[C@@H](C(=O)[C@@H](C)[C@@H](O)[C@H](C)[C@@H]1O[C@@H]([C@@H](CC)C(=O)O)CC[C@@H]1C)[C@H]1O[C@]2(C=C[C@@H](O)[C@]3(CC[C@@](C)([C@H]4CC[C@](O)(CC)[C@H](C)O4)O3)O2)[C@H](C)C[C@@H]1C [salinomycin] | under-expressed | over-expressed
2 | CC(=O)O[C@H]1C(=O)[C@@]2(C)[C@H]([C@H](OC(=O)c3ccccc3)[C@]3(O)C[C@H](OC(=O)[C@H](O)[C@@H](NC(=O)c4ccccc4)c4ccccc4)C(C)=C1C3(C)C)[C@]1(OC(C)=O)CO[C@@H]1C[C@@H]2O [paclitaxel] | over-expressed | under-expressed

Source: patent US20130260376A1, “Prediction of and Monitoring Cancer Therapy Response Based on Gene Expression Profiling” (WHITEHEAD INSTITUTE FOR BIOMEDICAL RESEARCH, priority 2010, published 2013)
